Tested on: subjects with mild-to-moderate AD
Assay: ADCS-ADL (Activities of Daily Living) change from baseline, 57-week Phase 2a study and 208-week extension study
Assay type: in vivo, human
Set-up: key to unadjusted change in ADCS-ADL score, Mean ± Std. Dev: change from baseline on ADCS-ADL scale 0–78, higher = greater function
Text: The present study integrates and analyzes data and samples from two consecutive clinical trials: 57-week study and 208-week study. 57-week study was a multicenter Phase 2a clinical trial of the drug ANAVEX2-73 that recruited a sample of 32 subjects with mild-to-moderate AD. It consisted of two parts: Part A was a simple randomized, open-label, two-period, cross-over, adaptive trial lasting up to 5 weeks. Each period involved one specific administration route and two possible dose levels: in one period the oral dose (30 mg or 50 mg) was administrated and in the other period an intravenous (IV) form (3 mg or 5 mg) was administered, making a total of 8 possible dose administration schemes in Part A (details available in FIG. 2A). The two periods were separated by a wash-out period of 12 days where no dose was given.
Part B, following immediately after Part A, was an open-label extension of the oral daily dose for an additional 52 weeks. The primary endpoint of 57-week study was to establish the safety and tolerability of the drug. Secondary endpoints aimed at establishing the relationship between dosing regimen and pharmacodynamics-exploratory efficacy outcomes of cognition and function. Cognition was assessed by the Mini Mental State Examination (MMSE), while functional abilities by the Alzheimer's Disease Co-operative Study—Activities of Daily Living Inventory (ADCS-ADL). Additional cognitive measures included the Cogstate Brief Battery (CBB), and functional measures of Electroencephalography and Event-Related Potential (EEG and ERP). Part B continued an adaptive oral administration scheme. Table 12 summarizes mean oral dose administration during the 57-week study study.
Due to favorable safety and tolerability profile of the 57-week study (Table 2), and in response to requests from patients and caregivers, a 208-week open-label extension study (208-week study) was carried out immediately after completion of 57-week study Part B. 208-week study enrolled the 24 subjects who completed Part B and applied similarly an adaptive daily oral administration scheme. ANAVEX2-73-003 involves continuous evaluation of safety and efficacy as measured by the MMSE and ADCS-ADL. At week 148 (interim time point for analyses), data on the subjects remaining in the study (n=21) was analyzed for efficacy outcomes. This report was drafted using data available at week 148, while ANAVEX2-73-003 is still ongoing.
Exploratory clinical efficacy in this study was defined as change from baseline of each patient's cognitive (MMSE) and functional ability (ADCS-ADL) scores. The MMSE57 is a widely used, validated instrument in clinical AD research, including as a cognitive outcome measure in drug trials. The range of the scale is from 0 to 30, with a higher score indicating higher cognitive function. The ADCS-ADL58 is undertaken in a structured caregiver interview format and assesses performance in activities of daily living of patients with AD. The scale is from 0 to 78, with a higher score indicating greater function. The ADCS-ADL has shown to have good test-retest reliability 59. The MMSE and the ADCS-ADL were assessed during pre-specified clinical site visits across 14 different time points during the 57-week study (Weeks 0 and 5 in Part A; Weeks 17, 31, 41, 53, and 57 in Part B), and 208-week study (Weeks 70, 83, 96, 109, 122, 135, and 148) studies.
Corresponding Delta scores were calculated using the difference between values at each visit and at baseline for each individual patient, with a focus on Week 57. In addition, to lower the impact of noise in MMSE and ADCS-ADL scores, a Slope was estimated using a linear regression across all available time points for each individual patient. The derived scores describe the progression of exploratory efficacy data from baseline at several specific time points (Deltas) and over a set period of time (Slope). […]

CN(C)CC1CCOC1(c1ccccc1)c1ccccc1.Cl (centres unmarked) [ANAVEX2-73, tetrahydro-N,N-dimethyl-2,2-diphenyl-3-furanmethanamine hydrochloride]
ADCS-ADL Mean Δ at 57 weeks (Absence of COMT_L146fs variant & Baseline MMSE ≥20, N 11): −0.63 ± 5.33
ADCS-ADL Mean Δ at 57 weeks (Absence of COMT_L146fs variant, N 16): −2.37 ± 6.96
ADCS-ADL Mean Δ at 57 weeks (Absence of SIGMAR1_Q2P variant & Absence of COMT_L145fs variant & Baseline MMSE ≥20, N 10): −0.30 ± 5.50
ADCS-ADL Mean Δ at 57 weeks (Absence of SIGMAR1_Q2P variant, N 16): −3.31 ± 7.64
ADCS-ADL Mean Δ at 57 weeks (Absence of SIGNAR1_Q2P variant & Baseline MMSE ≥20, N 11): −1.27 ± 6.13
unadjusted change in ADCS-ADL score, Mean ± Std. Dev (All Patients (N = 21), Week 0): 0 ± 0
unadjusted change in ADCS-ADL score, Mean ± Std. Dev (All Patients (N = 21), Week 5): −1.65 ± 6.71
unadjusted change in ADCS-ADL score, Mean ± Std. Dev (All Patients (N = 21), Week 17): −1.33 ± 3.85
unadjusted change in ADCS-ADL score, Mean ± Std. Dev (All Patients (N = 21), Week 31): −3.60 ± 8.09
unadjusted change in ADCS-ADL score, Mean ± Std. Dev (All Patients (N = 21), Week 41): −3.95 ± 6.34
unadjusted change in ADCS-ADL score, Mean ± Std. Dev (All Patients (N = 21), Week 53): −5.29 ± 7.47
unadjusted change in ADCS-ADL score, Mean ± Std. Dev (All Patients (N = 21), Week 57): −5.24 ± 8.42
unadjusted change in ADCS-ADL score, Mean ± Std. Dev (All Patients (N = 21), Week 70): −8.81 ± 10.90
unadjusted change in ADCS-ADL score, Mean ± Std. Dev (All Patients (N = 21), Week 83): −9.38 ± 12.69
unadjusted change in ADCS-ADL score, Mean ± Std. Dev (All Patients (N = 21), Week 96): −14.52 ± 15.61
unadjusted change in ADCS-ADL score, Mean ± Std. Dev (All Patients (N = 21), Week 109): −14.25 ± 14.56
unadjusted change in ADCS-ADL score, Mean ± Std. Dev (All Patients (N = 21), Week 122): −17.84 ± 18.89
unadjusted change in ADCS-ADL score, Mean ± Std. Dev (All Patients (N = 21), Week 135): −20.29 ± 18.37
unadjusted change in ADCS-ADL score, Mean ± Std. Dev (All Patients (N = 21), Week 148): −21.16 ± 17.73
ADCS-ADL Mean Δ at 57 weeks (All, N 21): −5.19 ± 8.46
ADCS-ADL Mean Δ at 57 weeks (Baseline MMSE ≥20, N 13): −2.00 ± 5.93
unadjusted change in ADCS-ADL score, Mean ± Std. Dev (Group1 (n 2), Week 0): 0.00 ± 0.00
unadjusted change in ADCS-ADL score, Mean ± Std. Dev (Group1 (n 2), Week 5): 6.50 ± 9.19
unadjusted change in ADCS-ADL score, Mean ± Std. Dev (Group1 (n 2), Week 17): 4.50 ± 0.71
unadjusted change in ADCS-ADL score, Mean ± Std. Dev (Group1 (n 2), Week 31): 6.50 ± 3.54
unadjusted change in ADCS-ADL score, Mean ± Std. Dev (Group1 (n 2), Week 41): 4.50 ± 0.71
unadjusted change in ADCS-ADL score, Mean ± Std. Dev (Group1 (n 2), Week 53): 5.00 ± 1.41
unadjusted change in ADCS-ADL score, Mean ± Std. Dev (Group1 (n 2), Week 57): 6.00 ± 2.83
unadjusted change in ADCS-ADL score, Mean ± Std. Dev (Group1 (n 2), Week 70): 6.00 ± 2.83
unadjusted change in ADCS-ADL score, Mean ± Std. Dev (Group1 (n 2), Week 83): 4.50 ± 2.12
unadjusted change in ADCS-ADL score, Mean ± Std. Dev (Group1 (n 2), Week 96): 5.50 ± 2.12
unadjusted change in ADCS-ADL score, Mean ± Std. Dev (Group1 (n 2), Week 109): 4.00 ± 0.00
unadjusted change in ADCS-ADL score, Mean ± Std. Dev (Group1 (n 2), Week 122): 6.00 ± 2.83
unadjusted change in ADCS-ADL score, Mean ± Std. Dev (Group1 (n 2), Week 135): 6.00 ± 2.83
unadjusted change in ADCS-ADL score, Mean ± Std. Dev (Group1 (n 2), Week 148): 7.00 ± 4.24
unadjusted change in ADCS-ADL score, Mean ± Std. Dev (Group2 (n 6), Week 0): 0.00 ± 0.00
unadjusted change in ADCS-ADL score, Mean ± Std. Dev (Group2 (n 6), Week 5): 0.83 ± 6.59
unadjusted change in ADCS-ADL score, Mean ± Std. Dev (Group2 (n 6), Week 17): 1.33 ± 2.80
unadjusted change in ADCS-ADL score, Mean ± Std. Dev (Group2 (n 6), Week 31): 0.33 ± 5.39
unadjusted change in ADCS-ADL score, Mean ± Std. Dev (Group2 (n 6), Week 41): 0.50 ± 4.09
unadjusted change in ADCS-ADL score, Mean ± Std. Dev (Group2 (n 6), Week 53): 0.50 ± 4.18
unadjusted change in ADCS-ADL score, Mean ± Std. Dev (Group2 (n 6), Week 57): 1.83 ± 3.66
unadjusted change in ADCS-ADL score, Mean ± Std. Dev (Group2 (n 6), Week 70): 0.33 ± 4.93
unadjusted change in ADCS-ADL score, Mean ± Std. Dev (Group2 (n 6), Week 83): −0.67 ± 5.85
unadjusted change in ADCS-ADL score, Mean ± Std. Dev (Group2 (n 6), Week 96): −2.50 ± 7.71
unadjusted change in ADCS-ADL score, Mean ± Std. Dev (Group2 (n 6), Week 109): −3.83 ± 7.96
unadjusted change in ADCS-ADL score, Mean ± Std. Dev (Group2 (n 6), Week 122): −3.00 ± 6.72
unadjusted change in ADCS-ADL score, Mean ± Std. Dev (Group2 (n 6), Week 135): −4.17 ± 10.42
unadjusted change in ADCS-ADL score, Mean ± Std. Dev (Group2 (n 6), Week 148): −8.17 ± 15.96
unadjusted change in ADCS-ADL score, Mean ± Std. Dev (Group 3 (n 11), Week 0): 0.00 ± 0.00
unadjusted change in ADCS-ADL score, Mean ± Std. Dev (Group 3 (n 11), Week 5): −0.09 ± 6.32
unadjusted change in ADCS-ADL score, Mean ± Std. Dev (Group 3 (n 11), Week 17): 0.09 ± 3.45
unadjusted change in ADCS-ADL score, Mean ± Std. Dev (Group 3 (n 11), Week 31): −1.82 ± 5.71
unadjusted change in ADCS-ADL score, Mean ± Std. Dev (Group 3 (n 11), Week 41): −2.27 ± 6.40
unadjusted change in ADCS-ADL score, Mean ± Std. Dev (Group 3 (n 11), Week 53): −1.73 ± 5.61
unadjusted change in ADCS-ADL score, Mean ± Std. Dev (Group 3 (n 11), Week 57): −1.36 ± 6.09

Reference: patent US12383526B2, “Optimized sigma-1 agonist method of responder selection and treatment” (ANAVEX LIFE SCIENCES CORP., priority 2018, dated 2025)
